Laboratory results reported in patent publication US20240000738A1, “HYDROXYSTEARIC ACID FOR INDUCING GENERATION OF ANTIMICROBIAL PEPTIDES” (Conopco, Inc., d/b/a UNILEVER, priority 2020, published 2024).

What was measured:
Assay type in all cases: cell-based, Human
S100A7 = assay: AMP gene expression in keratinocytes (real time qPCR), S100A7; settings: NHEK cells, 12HSA at 1 μM (=0.00003 wt %), 24 h
Excerpt: (§1) The following protocol was used for evaluating actives (12-HSA) on keratinocytes for AMP gene expression Normal Human Epidermal Keratinocyte cells (NHEK), EpiLife Keratinocyte Growth Medium (KGM) (with antibiotics Pen-Strep), Dulbecco's Phosphate Buffered Salone (DPBS), Trypsin-EDTA, Trypsin Neutralizer Solution, Ethanol, RNA extraction kit (RNeasy kit), RLT buffer, RT-PCR kit. • 1. Thaw the NHEK cells and expand them in KGM in 2-25 cc and then 75 cc flasks to 80% confluency, changing media every alternate day and incubating at 37° C. in a 5% CO2 incubator. • 2. Discard spent media and rinse the adhered cells in the flask with DPBS. Add Trypsin-EDTA and tap to dislodge the adhered cells. Add Trypsin Neutralizer and gently mix it. • 3. Transfer the contents to a 15-ml tube and spin down the cells. Discard supernatant and resuspend cells in KGM. Count and seed 30,000-50,000 cells per well in 24 well TC plates, incubate to 80-85% confluence (˜2-3 days). Change media every alternate day. Add differentiation media (KGM with 2 mM CaCl2) and incubate for 2-3 days. • 4. Prepare actives in KGM at the required concentration (final concentration of ethanol solvent, if used, should be less than 0.1%). • 5. […] Perform RNA extraction as per the kit, quantify the RNA, do cDNA synthesis and do real time qPCR for cDNA samples. […]

RNase7 = assay: AMP gene expression in keratinocytes (real time qPCR), RNase7; settings: NHEK cells, 12HSA at 1 μM (=0.00003 wt %), 24 h
Excerpt: as §1

LL-37 = assay: AMP gene expression in keratinocytes (real time qPCR), LL-37; settings: NHEK cells, 12HSA at 1 μM (=0.00003 wt %), 24 h
Excerpt: as §1

HBD-3 = assay: AMP gene expression in keratinocytes (real time qPCR), HBD-3; settings: NHEK cells, 12HSA at 1 μM (=0.00003 wt %), 24 h
Excerpt: as §1

Psoriasin (S100A7) = assay: AMP secretion from keratinocytes (Psoriasin ELISA); settings: NHEK cells, 72 h, ELISA of supernatant
Excerpt: Psoriasin (S100A7) AMP from the above list was chosen to study the effect of concentration of 12-HSA on the secretion of the AMP. The procedure used was as follows: Normal Human Epidermal Keratinocyte cells (NHEK), EpiLife Keratinocyte Growth Medium (KGM) (with antibiotics Pen-Strep), Dulbecco's Phosphate Buffered Salone (DPBS), Trypsin-EDTA, Trypsin Neutralizer Solution, Ethanol, Psoriasin ELISA Kit. • 1. Thaw the NHEK cells and expand them in KGM in 2 -25 cc and then 75 cc flasks to 80% confluency, changing media every alternate day and incubating at 37° C. in a 5% CO2 incubator. • 2. Discard spent media and rinse the adhered cells in the flask with DPBS. Add Trypsin-EDTA and tap to dislodge the adhered cells. Add Trypsin Neutralizer and gently mix it. • 3. Transfer the contents to a 15-ml tube and spin down the cells. Discard supernatant and resuspend cells in KGM. Count and seed 30,000-50,000 cells per well in 24 well TC plates, incubate to 80-85% confluence (˜2-3 days). Change media every alternate day. Add differentiation media (KGM with 2 mM CaCl2) and incubate for 2-3 days. • 4. Prepare actives in KGM at the required concentration (final concentration of ethanol solvent, if used, should be less than 0.1%). • 5. Replace the differentiation media with the actives containing media and incubate for 72 h • 6. Collect supernatant and store at −80° C. Thaw them completely before performing ELISA to measure AMP (Psoriasin). • 7. For ELISA, run the required standards and samples (undiluted and diluted) and using standard plot, the amount of AMP in samples calculated.

Compound: CCCCCCC(O)CCCCCCCCCCC(=O)O (centres unmarked) [12-HSA, 12-hydroxystearic acid]
- Fold change with respect to control, AMP gene S100A7 (S100A7): 1.66 fold
- Fold change with respect to control, AMP gene RNase7 (RNase7): 2.56 fold
- Fold change with respect to control, AMP gene LL-37 (LL-37): 2.09 fold
- Fold change with respect to control, AMP gene HBD-3 (HBD-3): 2.16 fold
- Fold change with respect to control (Psoriasin increase) (Psoriasin (S100A7); 0.25 μM 12-HSA): 8.12 fold
- Fold change with respect to control (Psoriasin increase) (Psoriasin (S100A7); 0.50 μM 12-HSA): 15.07 fold
- Fold change with respect to control (Psoriasin increase) (Psoriasin (S100A7); 1.0 μM 12-HSA): 9.79 fold
- Fold change with respect to control (Psoriasin increase) (Psoriasin (S100A7); 2.0 μM 12-HSA): 15.70 fold
